Experimental data as given in ChEMBL document CHEMBL1201862, “PubChem BioAssay data set” (2004).
Activity calls are given as the source filed them.

Assays:
[1] = biological target: T1, Type-1 angiotensin II receptor (Homo sapiens, UniProt P30556); experiment: antagonism of angiotensin II type 1 receptor – cell-based, uHTS hits, selectivity assay for APJ receptor antagonist project, dose response (AID 463214); type: functional;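 also: antagonist potency against angiotensin II stimulated AT1 response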
T1 sequence (P30556 whole entry): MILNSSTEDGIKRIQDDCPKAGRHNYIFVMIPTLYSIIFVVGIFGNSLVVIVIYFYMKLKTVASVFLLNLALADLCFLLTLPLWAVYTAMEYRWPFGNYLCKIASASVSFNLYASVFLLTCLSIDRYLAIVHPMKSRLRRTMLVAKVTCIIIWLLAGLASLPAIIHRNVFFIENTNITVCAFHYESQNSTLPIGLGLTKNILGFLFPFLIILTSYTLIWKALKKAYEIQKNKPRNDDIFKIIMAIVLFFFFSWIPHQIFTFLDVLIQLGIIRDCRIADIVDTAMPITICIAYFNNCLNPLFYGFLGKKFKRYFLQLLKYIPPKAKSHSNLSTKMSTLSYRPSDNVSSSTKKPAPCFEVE

[2] = cytotoxicity toward MDA-MB-231 breast cancer cells – cell-based, CellTiter-Glo luminescence, cherry-pick, cytotoxicity control for RAD54 inhibitor project, dose response (AID 651692); type: functional
[3] = biological target: T2, Ubiquitin-conjugating enzyme E2 N (Homo sapiens, UniProt P61088); type: functional
T2 sequence (P61088 whole entry): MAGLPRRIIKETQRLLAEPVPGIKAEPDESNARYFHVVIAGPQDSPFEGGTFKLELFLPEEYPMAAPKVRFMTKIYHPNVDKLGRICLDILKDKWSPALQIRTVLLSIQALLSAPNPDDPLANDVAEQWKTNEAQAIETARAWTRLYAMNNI

[4] = Luminescence Cell-Based Dose Response HTS to Identify Inhibitors of 5'UTR Stem-Loop Driven Prion Protein mRNA Translation in H4 Neuroglioblastoma Cells. [Related pubchem assays: 1827 (Project Summary), 1813 (Primary HTS)]; type: functional
[5] = biological target: Induced myeloid leukemia cell differentiation protein Mcl-1 (Homo sapiens, UniProt Q07820); type: functional
Induced myeloid leukemia cell differentiation protein Mcl-1, sequence (Q07820 whole entry): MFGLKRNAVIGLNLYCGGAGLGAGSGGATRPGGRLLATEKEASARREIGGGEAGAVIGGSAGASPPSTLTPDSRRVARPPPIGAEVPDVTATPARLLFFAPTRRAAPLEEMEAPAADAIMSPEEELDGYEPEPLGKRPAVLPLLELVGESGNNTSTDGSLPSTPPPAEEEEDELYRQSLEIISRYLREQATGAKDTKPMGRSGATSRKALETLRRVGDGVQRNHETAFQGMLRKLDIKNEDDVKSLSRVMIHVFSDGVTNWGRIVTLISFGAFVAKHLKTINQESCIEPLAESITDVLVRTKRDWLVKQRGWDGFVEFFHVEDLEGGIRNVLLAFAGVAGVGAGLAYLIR

[6] = biological target: T3, Mannose-6-phosphate isomerase (Homo sapiens, UniProt P34949); experiment: MPI inhibition at elevated mannose 6-phosphate – biochemical, fluorescence intensity, high mannose 6-phosphate, primary screen (AID 1220)
T3 sequence (P34949 whole entry): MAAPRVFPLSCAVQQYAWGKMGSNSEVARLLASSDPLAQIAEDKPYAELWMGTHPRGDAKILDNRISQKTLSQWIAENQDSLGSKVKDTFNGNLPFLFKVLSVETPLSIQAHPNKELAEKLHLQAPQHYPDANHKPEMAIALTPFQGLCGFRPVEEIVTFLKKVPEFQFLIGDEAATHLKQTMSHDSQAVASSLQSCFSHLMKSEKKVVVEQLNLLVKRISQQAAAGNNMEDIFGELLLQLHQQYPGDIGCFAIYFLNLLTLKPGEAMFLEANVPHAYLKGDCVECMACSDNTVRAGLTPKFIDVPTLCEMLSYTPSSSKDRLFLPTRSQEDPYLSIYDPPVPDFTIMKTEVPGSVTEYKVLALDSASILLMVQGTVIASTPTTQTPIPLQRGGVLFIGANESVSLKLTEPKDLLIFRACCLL

[7] = biological target: T4, Sentrin-specific protease 7 (Homo sapiens, UniProt Q9BQF6); type: functional;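 also: Luminescence-based dose-response confirmation of ultra-high-throughput screening hits, measuring inhibition of SENP7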
T4 sequence (Q9BQF6 whole entry): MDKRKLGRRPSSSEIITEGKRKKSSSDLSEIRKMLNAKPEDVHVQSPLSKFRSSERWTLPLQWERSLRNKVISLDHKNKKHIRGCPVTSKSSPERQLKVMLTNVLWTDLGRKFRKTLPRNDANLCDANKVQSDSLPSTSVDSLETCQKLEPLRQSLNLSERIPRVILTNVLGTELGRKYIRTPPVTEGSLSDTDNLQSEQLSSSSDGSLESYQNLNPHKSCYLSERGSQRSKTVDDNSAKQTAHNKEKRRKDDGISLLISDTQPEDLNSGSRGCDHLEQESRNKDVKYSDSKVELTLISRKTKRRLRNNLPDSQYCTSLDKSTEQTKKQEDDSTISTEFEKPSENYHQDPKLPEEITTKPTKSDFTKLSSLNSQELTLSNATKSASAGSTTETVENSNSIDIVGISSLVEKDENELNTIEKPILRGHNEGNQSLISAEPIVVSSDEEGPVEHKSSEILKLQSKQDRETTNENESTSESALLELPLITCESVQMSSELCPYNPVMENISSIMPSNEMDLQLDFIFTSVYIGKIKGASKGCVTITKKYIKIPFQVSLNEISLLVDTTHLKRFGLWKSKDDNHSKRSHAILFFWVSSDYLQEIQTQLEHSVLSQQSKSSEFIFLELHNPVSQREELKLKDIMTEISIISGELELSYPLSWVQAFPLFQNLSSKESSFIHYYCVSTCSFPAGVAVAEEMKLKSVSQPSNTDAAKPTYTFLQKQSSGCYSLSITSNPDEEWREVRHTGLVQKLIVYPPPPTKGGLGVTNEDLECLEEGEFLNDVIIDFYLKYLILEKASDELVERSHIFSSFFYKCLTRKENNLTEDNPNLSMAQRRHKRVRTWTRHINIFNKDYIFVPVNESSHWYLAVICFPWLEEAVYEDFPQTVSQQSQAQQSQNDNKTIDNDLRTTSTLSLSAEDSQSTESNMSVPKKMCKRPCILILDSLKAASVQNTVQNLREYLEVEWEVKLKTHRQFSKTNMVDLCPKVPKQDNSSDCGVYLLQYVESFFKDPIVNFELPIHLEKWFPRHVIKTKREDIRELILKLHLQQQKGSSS

With `CCOC(=O)c1c(-c2ccc(-c3ccccc3)cc2)csc1NC(=O)CNCCN(C)C` the IC50 [1] was 9.33 µM (active), the AC50 [2] was 18.4 µM (active) and the IC50 [3] was 10.1 µM (active). For the same compound, the EC50 [4] was 13.7 µM (active).
With `COc1cc(-c2nnc(SCc3cc(=O)oc4cc(O)c(O)cc34)o2)cc(OC)c1OC` the IC50 [5] was 3.77 µM (active) and the IC50 [6] was > 50 µM (not active).
For `N#Cc1c(NC(=O)c2ccc(Br)o2)n(-c2ccccc2)c2nc3ccccc3nc12`, the IC50 [7] was 3.69 µM (active).
